What all share (assay type): cell-based
Assay [1] deals with EP2 subtype of the human PGE2 receptor (Homo sapiens, UniProt P43116). Nature of the assay: cAMP antagonism test on the human EP2 receptor (HTRF cAMP detection). The conditions noted are these: hEP2 receptor, read-out: Antagonism hEP2 IC50. The method in brief:
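Read-out is a competitive HTRF for cAMP: lysate cAMP displaces cAMP-d2 from Eu cryptate-labelled antibody, and antagonism raises the 665/620 nm ratio. Compound (0.8 nM–16.5 μM) added to EP2 cells 20 min at RT before 60 min PGE2 challenge (3× stock 1.5 nM) with IBMX, followed by 20 min lysis.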
In general terms: In TR-FRET formats the signal depends on donor and acceptor labels being close together.

In assay [2] the target is EP4 subtype of the human PGE2 receptor (Homo sapiens, UniProt P35408). Nature of the assay: cAMP antagonism test on the human EP4 receptor (HTRF cAMP detection). Conditions: selectivity towards hEP4, IC50 measured by cAMP antagonism test. The gist of the method:
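Competitive HTRF cAMP read-out (cAMP-d2 vs Eu-cryptate anti-cAMP antibody, 665/620 nm ratio) on lysed human EP4 cells. Compound (0.8 nM–16.5 μM) applied 20 min at RT before 60 min PGE2 challenge (3× solution 0.3 nM, IBMX present); 20 min lysis precedes reading.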

The target of a further assay is T1, human PGD receptor (Homo sapiens, UniProt Q13258).
T1 sequence (Q13258 1-359): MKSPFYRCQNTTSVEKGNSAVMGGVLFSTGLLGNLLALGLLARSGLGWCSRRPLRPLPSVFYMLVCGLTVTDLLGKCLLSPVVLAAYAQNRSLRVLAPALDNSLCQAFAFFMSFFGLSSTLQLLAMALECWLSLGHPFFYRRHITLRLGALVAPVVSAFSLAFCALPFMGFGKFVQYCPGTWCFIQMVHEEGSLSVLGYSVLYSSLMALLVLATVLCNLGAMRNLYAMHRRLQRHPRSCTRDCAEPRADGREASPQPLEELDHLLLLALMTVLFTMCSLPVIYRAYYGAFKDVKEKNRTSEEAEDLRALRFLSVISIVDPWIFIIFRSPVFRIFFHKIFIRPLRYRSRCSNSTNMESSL
Nature of the assay: cAMP antagonism test on the human prostaglandin D receptor (HTRF cAMP detection). Conditions: selectivity towards hDP, IC50 measured by cAMP antagonism test. The method in brief:
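HTRF competition read-out (665/620 nm ratio ×10000), where higher FRET means less cAMP, i.e. antagonism. Compounds (0.8 nM–16.5 μM) were preincubated 20 min at RT with cells and cAMP-d2, PGD2 (3× solution, 6 nM) in IBMX-containing PBS added for 30 min at RT, then cells lysed 20 min.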

Sequence of EP4 subtype of the human PGE2 receptor (P35408 whole entry): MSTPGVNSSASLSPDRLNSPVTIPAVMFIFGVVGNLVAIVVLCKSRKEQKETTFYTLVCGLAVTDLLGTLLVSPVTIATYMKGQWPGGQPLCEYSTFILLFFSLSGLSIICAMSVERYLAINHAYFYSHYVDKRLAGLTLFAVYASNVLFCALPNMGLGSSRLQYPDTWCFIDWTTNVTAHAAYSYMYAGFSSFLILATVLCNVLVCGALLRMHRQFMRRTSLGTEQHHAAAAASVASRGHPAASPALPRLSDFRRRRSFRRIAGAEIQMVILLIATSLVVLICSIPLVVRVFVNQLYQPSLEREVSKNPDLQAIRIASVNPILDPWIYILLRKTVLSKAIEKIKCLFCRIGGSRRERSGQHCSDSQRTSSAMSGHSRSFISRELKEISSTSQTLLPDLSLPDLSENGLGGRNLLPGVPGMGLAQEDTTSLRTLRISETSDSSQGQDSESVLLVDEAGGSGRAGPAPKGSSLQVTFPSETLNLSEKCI
Sequence of EP2 subtype of the human PGE2 receptor (P43116 whole entry): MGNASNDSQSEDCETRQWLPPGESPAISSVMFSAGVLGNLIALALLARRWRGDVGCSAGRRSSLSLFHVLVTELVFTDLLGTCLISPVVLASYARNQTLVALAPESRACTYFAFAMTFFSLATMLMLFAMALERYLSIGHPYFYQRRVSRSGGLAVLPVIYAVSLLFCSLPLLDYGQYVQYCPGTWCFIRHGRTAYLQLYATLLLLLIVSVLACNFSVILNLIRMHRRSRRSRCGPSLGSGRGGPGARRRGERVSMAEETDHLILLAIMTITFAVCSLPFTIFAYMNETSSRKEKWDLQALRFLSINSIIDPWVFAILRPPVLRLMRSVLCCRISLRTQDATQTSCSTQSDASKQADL

The term IC50 denotes the midpoint of a concentration-inhibition curve. On to `Cc1cc2nn(CC3CN(C(=O)c4ccc(Oc5ccc(F)cc5)cc4)C3)cc2cc1C(=O)NCCSC(F)(F)F` [Example 199, 2-({1-[4-(4-fluorophenoxy)benzoyl]azetidin-3-yl}methyl)-6-methyl-N-{2-[(trifluoromethyl)sulphanyl]ethyl}-2H-indazol-5-carboxamide], for which, in assay [1], the IC50 was 97.1 nM. For the same compound, the “Selectivity hEP2/hEP4” value in assay [2] is reported as “xxx (xxx > 100)”. Further, the “Selectivity hEP2/hDP” value on human PGD receptor was “xxx (xxx > 100)”.
Consider `COCCNC(=O)c1ccc2nn(CC3CCN(C(=O)c4ccc(-c5cccc(C(F)(F)F)c5)cc4F)CC3)cc2c1C` [Example 45, 2-[(1-{[3-fluoro-3′-(trifluoromethyl)-biphenyl-4-yl]-carbonyl}-piperidin-4-yl)-methyl]-N-(2-methoxyethyl)-4-methyl-2H-indazol-5-carboxamide], for which the IC50 in assay [1] stood at 5.51 nM. The “Selectivity hEP2/hEP4” value in assay [2] is reported as “xxx (xxx > 100)”. In addition, on human PGD receptor, the “Selectivity hEP2/hDP” value is “xxx (xxx > 100)”.
Turning to `COCCNC(=O)c1ccc2nn(CC3CCN(C(=O)c4ccc(-n5cnnc5)cc4)CC3)cc2c1C` [Example 52, N-(2-methoxyethyl)-4-methyl-2-((1-[4-(4H-1,2,4-triazol-4-yl)benzoyl]piperidin-4-yl}methyl)-2H-indazol-5-carboxamide], the 50% inhibitory concentration (IC50) in assay [1] stood at 830 nM. Further, in assay [2], the “Selectivity hEP2/hEP4” value is “xx (xx: 10-100)”. Also, on human PGD receptor, the “Selectivity hEP2/hDP” value is recorded as “xx (xx: 10-100)”.
For the compound `COCCNC(=O)c1ccc2nn(CC3CCN(C(=O)c4ccc(-c5cnco5)cc4)CC3)cc2c1C` [Example 36, N-(2-methoxyethyl)-4-methyl-2-({1-[4-(oxazol-5-yl)-benzoyl]piperidin-4-yl}methyl)-2H-indazol-5-carboxamide], the concentration for half-maximal inhibition (IC50) in assay [1] was determined as 61.6 nM. Besides, the “Selectivity hEP2/hEP4” value in assay [2] is “xxx (xxx > 100)”. For the same compound, the “Selectivity hEP2/hDP” value on human PGD receptor is reported as “xxx (xxx > 100)”.
Take `Cc1c(C(=O)NCCS(C)(=O)=O)ccc2nn(CC3CCN(C(=O)c4ccc(Oc5ccc(C(F)(F)F)nc5)cc4)CC3)cc12` [Example 397, N-(2-mesylethyl)-4-methyl-2-{[1-(4-{[6-(trifluoromethyl)pyridin-3-yl]oxy}-benzoyl)piperidin-4-yl]methyl}-2H-indazol-5-carboxamide]: in assay [1], the IC50 is 12.5 nM. In addition, the “Selectivity hEP2/hEP4” value in assay [2] was “xxx (xxx > 100)”. Moreover, the “Selectivity hEP2/hDP” value at human PGD receptor was “xxx (xxx > 100)”.
`Cc1c(C(=O)NCCOC(C)C)ccc2nn(CC3CCN(C(=O)c4ccc(Oc5ccc(F)cc5)cc4)CC3)cc12` [Example 98, 2-({1-[4-(4-fluoro-phenoxy)benzoyl]-piperidin-4-yl}-methyl)-N-(2-isopropoxyethyl)-4-methyl-2H-indazol-5-carboxamide]: in assay [1], the half-maximal inhibitory concentration (IC50) came out at 7.07 nM. Also, the “Selectivity hEP2/hEP4” value in assay [2] is “xxx (xxx > 100)”. Moreover, on human PGD receptor, the “Selectivity hEP2/hDP” value is recorded as “xxx (xxx > 100)”.
As for `COCCNC(=O)c1ccc2nn(CC3CCN(C(=O)c4ccc(-c5ccc(Cl)cc5F)cc4)CC3)cc2c1C` [Example 383, 2-({1-[(4′-chloro-2′-fluorobiphenyl-4-yl)carbonyl]piperidin-4-yl}methyl)-N-(2-methoxyethyl)-4-methyl-2H-indazol-5-carboxamide], the IC50 in assay [1] stood at 5.78 nM. Moreover, the “Selectivity hEP2/hEP4” value in assay [2] is “xxx (xxx > 100)”. Also, the “Selectivity hEP2/hDP” value on human PGD receptor was “xxx (xxx > 100)”.
`COCCNC(=O)c1ccc2nn(CC3CCN(C(=O)c4ccc(SC(F)(F)F)cc4)CC3)cc2c1C` [Example 57, N-(2-methoxyethyl)-4-methyl-2-[(1-{4-[(trifluoromethyl)sulphanyl]benzoyl}piperidin-4-yl)methyl]-2H-indazol-5-carboxamide]: in assay [1], the IC50 stood at 5.29 nM. The “Selectivity hEP2/hEP4” value in assay [2] is reported as “xxx (xxx > 100)”. Moreover, at human PGD receptor, the “Selectivity hEP2/hDP” value is reported as “xxx (xxx > 100)”.
As to `COCCNC(=O)c1ccc2nn(CC3CCN(C(=O)c4ccc(Oc5ccc(F)cc5)cc4)CC3)cc2c1OCC(F)(F)F` [Example 233, 2-({1-[4-(4-fluorophenoxy)benzoyl]piperidin-4-yl}methyl)-N-(2-methoxyethyl)-4-(2,2,2-trifluoroethoxy)-2H-indazol-5-carboxamide], the IC50 in assay [1] worked out at 39.7 nM. For the same compound, the “Selectivity hEP2/hEP4” value in assay [2] was “xxx (xxx > 100)”. For the same compound, the “Selectivity hEP2/hDP” value at human PGD receptor is given as “xxx (xxx > 100)”.
As to `Cc1c(C(=O)NCCSC(F)(F)F)ccc2nn(CC3CN(C(=O)c4ccc(C(F)(F)F)cc4F)C3)cc12` [Example 134, 2-({1-[2-fluoro-4-(trifluoromethyl)benzoyl]azetidin-3-yl}methyl)-4-methyl-N-{2-[(trifluoromethyl)sulphanyl]ethyl}-2H-indazol-5-carboxamide], the IC50 in assay [1] came out at 56.5 nM. The “Selectivity hEP2/hEP4” value in assay [2] is given as “xxx (xxx > 100)”. In addition, the “Selectivity hEP2/hDP” value at human PGD receptor is given as “xxx (xxx > 100)”.
Consider `COCCNC(=O)c1ccc2nn(CC3CN(C(=O)c4ccc(C(F)(F)F)cc4F)C3)cc2c1OC` [Example 255, 2-({1-[2-fluoro-4-(trifluoromethyl)benzoyl]azetidin-3-yl}methyl)-4-methoxy-N-(2-methoxyethyl)-2H-indazol-5-carboxamide], for which the IC50 in assay [1] is 83.5 nM. The “Selectivity hEP2/hEP4” value in assay [2] is listed as “xxx (xxx > 100)”. The “Selectivity hEP2/hDP” value at human PGD receptor is “xxx (xxx > 100)”.
`Cc1c(C(=O)NCCN2CCOCC2)ccc2nn(CC3CCN(C(=O)c4cccc(C(F)(F)F)c4)CC3)cc12` [Example 65, 4-methyl-N-(2-morpholinoethyl)-2-({1-[3-(trifluoromethyl)benzoyl]piperidin-4-yl}methyl)-2H-indazol-5-carboxamide]: the IC50 in assay [1] amounted to 2790 nM. In addition, the “Selectivity hEP2/hEP4” value in assay [2] is reported as “x (x: 1-10)”. Also, the “Selectivity hEP2/hDP” value on human PGD receptor is recorded as “x (x: 1-10)”.
As for `Cc1ccc(C(=O)N2CCC(Cn3cc4c(C)c(C(=O)NCCOCC(F)(F)F)ccc4n3)CC2)cc1` [Example 91, 4-methyl-2-{[1-(4-methylbenzoyl)-piperidin-4-yl]-methyl}-N-[2-(2,2,2-trifluoro-ethoxy)ethyl]-2H-indazol-5-carboxamide], the half-inhibitory concentration (IC50) in assay [1] was determined as 20.3 nM. Also, in assay [2], the “Selectivity hEP2/hEP4” value was “xxx (xxx > 100)”. The “Selectivity hEP2/hDP” value at human PGD receptor is reported as “xxx (xxx > 100)”.
With `COc1ccc2cc(C(=O)N3CCC(Cn4cc5c(C)c(C(=O)NCC(F)(F)F)ccc5n4)CC3)n(C)c2c1` [Example 295, 2-({1-[(6-methoxy-1-methyl-1H-indol-2-yl)carbonyl]piperidin-4-yl}methyl)-4-methyl-N-(2,2,2-trifluoroethyl)-2H-indazol-5-carboxamide], in assay [1], the IC50 is 70.8 nM. Besides, the “Selectivity hEP2/hEP4” value in assay [2] is “xxx (xxx > 100)”. Moreover, the “Selectivity hEP2/hDP” value at human PGD receptor was “xxx (xxx > 100)”.
`CCNC(=O)c1ccc2nn(CC3CCN(C(=O)c4ccc(Cl)cc4)CC3)cc2c1C` [Example 242, 2-{[1-(4-chlorobenzoyl)piperidin-4-yl]methyl}-N-ethyl-4-methyl-2H-indazol-5-carboxamide]: the IC50 in assay [1] was determined as 305 nM. Also, the “Selectivity hEP2/hEP4” value in assay [2] is recorded as “xx (xx: 10-100)”. In addition, at human PGD receptor, the “Selectivity hEP2/hDP” value is “xx (xx: 10-100)”.
Take `Cc1c(C(=O)NCCOC2CCC2)ccc2nn(CC3CN(C(=O)c4ccc(OC(F)(F)F)cc4)C3)cc12` [Example 137, N-[2-(cyclobutyloxy)ethyl]-4-methyl-2-({1-[4-(trifluoromethoxy)benzoyl]azetidin-3-yl}methyl)-2H-indazol-5-carboxamide]: the IC50 in assay [1] was determined as 7.65 nM. In addition, the “Selectivity hEP2/hEP4” value in assay [2] is listed as “xxx (xxx > 100)”. Also, on human PGD receptor, the “Selectivity hEP2/hDP” value is on record as “xxx (xxx > 100)”.
For `COCCNC(=O)c1ccc2nn(CC3CCN(C(=O)c4ccc(-c5ccc(F)cc5OC)cc4)CC3)cc2c1C` [Example 380, 2-({1-[(4′-fluoro-2′-methoxybiphenyl-4-yl)carbonyl]piperidin-4-yl}methyl)-N-(2-methoxyethyl)-4-methyl-2H-indazol-5-carboxamide], the IC50 in assay [1] was 5.35 nM. In addition, the “Selectivity hEP2/hEP4” value in assay [2] is listed as “xxx (xxx > 100)”. Further, on human PGD receptor, the “Selectivity hEP2/hDP” value is listed as “xxx (xxx > 100)”.
Regarding `COCCNC(=O)c1ccc2nn(CC3CCN(C(=O)c4ccc(-c5ccc(OC)cn5)cc4)CC3)cc2c1C` [Example 373, N-(2-methoxyethyl)-2-({1-[4-(5-methoxypyridin-2-yl)benzoyl]piperidin-4-yl}-methyl)-4-methyl-2H-indazol-5-carboxamide], the IC50 in assay [1] is 40.7 nM. In addition, in assay [2], the “Selectivity hEP2/hEP4” value was “xxx (xxx > 100)”. Also, the “Selectivity hEP2/hDP” value at human PGD receptor was “xxx (xxx > 100)”.
Take `Cc1cc2nn(CC3CCN(C(=O)c4cccc(S(F)(F)(F)(F)F)c4)CC3)cc2cc1C(=O)NCCN1CCOCC1` [Example 81, 6-methyl-N-(2-morpholinoethyl)-2-({1-[3-(pentafluoro-λ^6-sulphanyl)benzoyl]-piperidin-4-yl}-methyl)-2H-indazol-5-carboxamide]: the IC50 in assay [1] stood at 513 nM. Further, in assay [2], the “Selectivity hEP2/hEP4” value is recorded as “xx (xx: 10-100)”. In addition, the “Selectivity hEP2/hDP” value at human PGD receptor is on record as “xx (xx: 10-100)”.

Source of the values: patent US9062041B2 (Bayer Intellectual Property GmbH, priority 2011, dated 2015).
